Results: PMC12951562, “SH2scan: Mapping SH2 Domain-Ligand Binding Selectivity for Inhibitors and Degraders” (Journal of Medicinal Chemistry, 2026)
Where two headings read alike, the source gives them in different places. Non-standard residues stand in square brackets, D forms with d. Residues, ends and D or L forms follow the SMILES beside them. *: point of attachment. pY = N[C@@H](Cc1ccc(OP(=O)(O)O)cc1)C(=O)O; Caffeoyl = O=C(/C=C/c1ccc(O)c(O)c1)*

What was measured:
Test in all cases: biochemical
Format in all cases: binding
Details in all cases: for remaining activity at 10 µM: read-out: percent of DMSO vehicle control
TNS4 = molecular target: T1, TNS4 (Homo sapiens, UniProt Q8IZW8)
T1 construct: made in house; host or cells: HEK293 (transient transfection), unpurified extract
T1 sequence (Q8IZW8 19-715): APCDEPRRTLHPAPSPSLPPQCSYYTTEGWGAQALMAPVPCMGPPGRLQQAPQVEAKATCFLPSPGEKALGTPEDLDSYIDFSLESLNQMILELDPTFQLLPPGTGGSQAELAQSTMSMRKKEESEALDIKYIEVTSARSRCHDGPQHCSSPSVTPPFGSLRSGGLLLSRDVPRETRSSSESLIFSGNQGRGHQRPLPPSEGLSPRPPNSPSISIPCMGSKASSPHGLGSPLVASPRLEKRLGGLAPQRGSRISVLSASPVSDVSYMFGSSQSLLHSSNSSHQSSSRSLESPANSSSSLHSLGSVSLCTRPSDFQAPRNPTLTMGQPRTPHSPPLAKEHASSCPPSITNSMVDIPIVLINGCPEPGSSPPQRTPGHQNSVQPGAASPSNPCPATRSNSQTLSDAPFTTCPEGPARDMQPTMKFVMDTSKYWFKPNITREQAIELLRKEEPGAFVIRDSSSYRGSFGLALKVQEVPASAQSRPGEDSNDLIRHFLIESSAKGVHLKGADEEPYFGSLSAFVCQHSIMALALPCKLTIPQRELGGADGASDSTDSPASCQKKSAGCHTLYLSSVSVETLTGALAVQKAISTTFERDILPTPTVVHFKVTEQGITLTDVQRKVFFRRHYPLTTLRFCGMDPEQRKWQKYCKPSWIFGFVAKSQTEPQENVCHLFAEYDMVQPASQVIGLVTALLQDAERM

BLK = molecular target: T2, BLK (Homo sapiens, UniProt P51451)
T2 construct: the DNA-tagged SH2 domain concentrations used in this study were <0.1 nM; made in house; host or cells: HEK293 (transient transfection; unpurified extract)

PIK3R3(SH2dom.N-term.) = molecular target: T3, PIK3R3(SH2dom.N-term.) (Homo sapiens, UniProt Q92569)
T3 construct: SH2dom.N-term. denotes SH2 domain closest to N-terminus of protein; made in house; host or cells: HEK293 (transient transfection, unpurified extract)

VAV2 = molecular target: T4, VAV2 (Homo sapiens, UniProt P52735)
T4 construct: made in house; host or cells: HEK293 (transient transfection), unpurified extract
T4 sequence (P52735 1-878): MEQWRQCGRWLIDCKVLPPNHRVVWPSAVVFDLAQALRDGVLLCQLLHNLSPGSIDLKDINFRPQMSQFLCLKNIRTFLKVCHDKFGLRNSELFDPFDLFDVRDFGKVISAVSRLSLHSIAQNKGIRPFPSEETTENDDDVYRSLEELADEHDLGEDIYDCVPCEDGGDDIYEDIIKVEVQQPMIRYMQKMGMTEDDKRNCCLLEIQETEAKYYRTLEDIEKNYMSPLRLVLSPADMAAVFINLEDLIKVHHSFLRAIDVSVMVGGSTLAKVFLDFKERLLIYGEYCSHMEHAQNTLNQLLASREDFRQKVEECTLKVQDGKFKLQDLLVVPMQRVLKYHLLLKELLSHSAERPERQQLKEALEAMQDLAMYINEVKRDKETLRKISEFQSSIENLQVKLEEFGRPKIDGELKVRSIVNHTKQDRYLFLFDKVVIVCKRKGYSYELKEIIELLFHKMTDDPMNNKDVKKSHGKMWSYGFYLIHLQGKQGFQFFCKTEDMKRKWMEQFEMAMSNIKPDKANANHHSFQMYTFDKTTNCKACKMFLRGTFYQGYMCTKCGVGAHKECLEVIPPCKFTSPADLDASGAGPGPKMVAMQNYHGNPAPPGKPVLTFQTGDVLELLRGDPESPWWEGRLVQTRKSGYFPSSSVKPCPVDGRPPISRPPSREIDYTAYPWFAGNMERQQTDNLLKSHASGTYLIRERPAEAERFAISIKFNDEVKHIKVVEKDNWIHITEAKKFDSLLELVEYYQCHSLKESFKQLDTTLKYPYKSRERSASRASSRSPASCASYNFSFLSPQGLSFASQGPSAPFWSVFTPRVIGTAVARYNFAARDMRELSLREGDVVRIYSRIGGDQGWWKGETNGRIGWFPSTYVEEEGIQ

SHB = molecular target: T5, SHB (Homo sapiens, UniProt Q15464)
T5 construct: made in house; host or cells: HEK293 (transient transfection), unpurified extract

NCK1 = molecular target: T6, NCK1 (Homo sapiens, UniProt P16333)
T6 construct: the DNA-tagged SH2 domain concentrations used in this study were <0.1 nM; made in house; host or cells: HEK293 (transient transfection, unpurified extract)

PLCG2(SH2dom.N-term.) = molecular target: T7, PLCG2(SH2dom.N-term.) (Homo sapiens, UniProt P16885)
T7 construct: SH2dom.N-term. denotes SH2 domain closest to N-terminus of protein; made in house; host or cells: HEK293 (transient transfection, unpurified extract)
T7 sequence (P16885 532-635 limits assumed): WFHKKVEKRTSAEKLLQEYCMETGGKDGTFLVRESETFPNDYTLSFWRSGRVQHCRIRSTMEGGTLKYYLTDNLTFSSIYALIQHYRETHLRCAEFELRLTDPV

PIK3R3(SH2dom.C-term.) = molecular target: T8, PIK3R3(SH2dom.C-term.) (Homo sapiens, UniProt Q92569)
T8 construct: SH2dom.C-term. denotes SH2 domain closest to C-terminus of protein; made in house; host or cells: HEK293 (transient transfection, unpurified extract)

SH2D1B = molecular target: T9, SH2D1B (Homo sapiens, UniProt O14796)
T9 construct: made in house; host or cells: HEK293 (transient transfection), unpurified extract
T9 sequence (O14796 1-132): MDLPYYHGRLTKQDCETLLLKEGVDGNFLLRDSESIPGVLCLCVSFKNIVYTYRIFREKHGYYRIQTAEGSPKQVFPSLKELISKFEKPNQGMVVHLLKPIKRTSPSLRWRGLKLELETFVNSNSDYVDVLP

T2 sequence (P51451 124-220 limits assumed): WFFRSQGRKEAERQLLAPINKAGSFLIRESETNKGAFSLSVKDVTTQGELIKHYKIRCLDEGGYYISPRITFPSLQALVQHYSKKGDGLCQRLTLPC
T5 sequence (Q15464 whole entry): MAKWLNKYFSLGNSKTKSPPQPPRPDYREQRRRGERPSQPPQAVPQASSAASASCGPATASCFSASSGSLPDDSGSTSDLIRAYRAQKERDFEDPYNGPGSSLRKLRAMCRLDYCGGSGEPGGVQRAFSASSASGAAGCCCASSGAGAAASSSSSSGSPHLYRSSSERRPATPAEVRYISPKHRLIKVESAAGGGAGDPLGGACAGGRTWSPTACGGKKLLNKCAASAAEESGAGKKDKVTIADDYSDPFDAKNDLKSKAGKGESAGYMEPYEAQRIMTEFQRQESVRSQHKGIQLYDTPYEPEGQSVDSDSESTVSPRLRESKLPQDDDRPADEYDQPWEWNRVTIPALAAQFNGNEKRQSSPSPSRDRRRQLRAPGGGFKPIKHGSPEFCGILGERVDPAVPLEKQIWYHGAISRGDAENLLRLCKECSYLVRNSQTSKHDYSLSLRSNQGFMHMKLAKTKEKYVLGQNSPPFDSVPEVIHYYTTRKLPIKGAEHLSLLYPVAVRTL

| SMILES | remaining activity at 10 µM (TNS4; primary screen, 10 μM) [%] | remaining activity at 10 µM (BLK; primary screen, 10 μM) [%] | remaining activity at 10 µM (PIK3R3(SH2dom.N-term.); primary screen, 10 μM) [%] | remaining activity at 10 µM (VAV2; primary screen, 10 μM) [%] | remaining activity at 10 µM (SHB; primary screen, 10 μM) [%] | remaining activity at 10 µM (NCK1; primary screen, 10 μM) [%] | remaining activity at 10 µM (PLCG2(SH2dom.N-term.); primary screen, 10 μM) [%] | remaining activity at 10 µM (PIK3R3(SH2dom.C-term.); primary screen, 10 μM) [%] | remaining activity at 10 µM (SH2D1B; primary screen, 10 μM) [%] | Kd (TNS4) [µM] | remaining activity at 10 µM (TNS4) [%] | remaining activity at 10 µM (BLK) [%] | remaining activity at 10 µM (PIK3R3(SH2dom.N-term.)) [%] | remaining activity at 10 µM (VAV2) [%] | remaining activity at 10 µM (SHB) [%] | remaining activity at 10 µM (NCK1) [%] | remaining activity at 10 µM (PLCG2(SH2dom.N-term.)) [%] | Kd (PIK3R3(SH2dom.C-term.)) [µM] | remaining activity at 10 µM (PIK3R3(SH2dom.C-term.)) [%] | remaining activity at 10 µM (SH2D1B) [%] | also measured |
| --- | --- | --- | --- | --- | --- | --- | --- | --- | --- | --- | --- | --- | --- | --- | --- | --- | --- | --- | --- | --- | --- |
| C/C(=C\C(=O)N[C@H](C(=O)N1CCC[C@H]1C(=O)N(c1ccccc1)c1ccc(I)cc1)C(C)(C)C)c1ccc(OP(=O)(O)O)cc1 [STAT6-IN-1] | 14 ± 3.4 | 49.1 ± 3.4 | 48.3 ± 1.7 | 79.9 ± 1.6 | 28.7 ± 0.4 | 10.6 ± 2.6 | 20.7 ± 29.3 | 1 ± 0.1 | 49.6 ± 1.2 |  |  |  |  |  |  |  |  |  |  |  | Kd (TNS4; dose-response, read-out: KD): 1.8 ± 0.42 µM; KD (SHB; dose-response): No Hit; KD (NCK1; dose-response): No Hit; Kd (PLCG2(SH2dom.N-term.); dose-response, read-out: KD): 0.55 ± 0.014 µM; Kd (PIK3R3(SH2dom.C-term.); dose-response, read-out: KD): 0.78 ± 0.042 µM |
| CC[C@H](C)[C@H](NC(=O)[C@H](CCC(=O)O)NC(=O)[C@H](CCC(=O)O)NC(=O)[C@H](Cc1ccc(OP(=O)(O)O)cc1)NC(=O)/C=C/c1ccc(O)c(O)c1)C(=O)N[C@@H](CCC(=O)O)C(=O)O [Caffeic acid-pYEEIE] (Caffeoyl-[pY]EEIE-OH) |  |  |  |  |  |  |  |  |  | 2.6 ± 0.74 | 3.1 ± 0.7 | 0.1 | 0.6 | 0.5 ± 0.1 | 1.8 ± 0.1 | 0.8 ± 0.1 | 1.2 ± 0.1 | 0.23 ± 0.18 | 0.8 ± 0.1 | 12.9 ± 2.3 | Kd (BLK): 0.0015 ± 0.00069 µM; Kd (PIK3R3(SH2dom.N-term.)): 0.15 ± 0.02 µM; Kd (VAV2): 0.058 ± 0.04 µM; Kd (SHB): 1.2 ± 0.53 µM; Kd (NCK1): 0.097 ± 0.071 µM; Kd (PLCG2(SH2dom.N-term.)): 1.07 ± 0.32 µM; Kd (SH2D1B): 0.065 ± 0.014 µM |
| CC[C@H](C)[C@H](NC(=O)[C@H](CO)NC(=O)[C@H](CC(C)C)NC(=O)[C@H](CCCNC(=N)N)NC(=O)[C@H](CO)NC(=O)[C@H](CS)NC(C)=O)C(=O)N[C@@H](Cc1ccc(OP(=O)(O)O)cc1)C(=O)N[C@@H](CC(=O)O)C(=O)N[C@@H](CC(N)=O)C(=O)N[C@H](C(=O)N1CCC[C@H]1C(=O)NCC(N)=O)C(C)C [Ac-CSRLSIpYDNVPG-NH2] (Ac-CSRLSI[pY]DNVPG-NH2) |  |  |  |  |  |  |  |  |  | 0.0283 ± 0.00496 |  |  |  |  |  |  |  |  |  |  |  |
| CC(=O)N1CC[C@H]2CC[C@@H](C(=O)N[C@@H](CCC(N)=O)C(=O)NC(c3ccccc3)c3ccccc3)N2C(=O)[C@@H](NC(=O)c2cc3cc(C(F)(F)P(=O)(O)O)ccc3[nH]2)C1 [SI-109] |  |  |  |  |  |  |  |  |  |  | 110 | 105 | 142 | 119 | 129 | 124 | 112 |  | 137 | 223 |  |
| O=C(CCl)Nc1cccc(CNC(=O)[C@H](Cc2ccc(OP(=O)(O)O)cc2)NC(=O)Cc2ccc(F)cc2)c1 [MN551] | 25.9 | 116 | 97.7 | 77.8 ± 4.8 | 102 | 67.4 ± 5.3 | 109 | 27.3 ± 3.8 | 63.2 ± 6.6 |  |  |  |  |  |  |  |  |  |  |  | KD (TNS4; dose-response): No Hit; Kd (PIK3R3(SH2dom.C-term.); dose-response, read-out: KD): 4.4 µM |
| NC(=O)CC[C@H](NC(=O)[C@@H]1CC[C@@H]2CCN(C(=O)CCCCCC#Cc3cccc4c3CN(C3CCC(=O)NC3=O)C4=O)C[C@H](NC(=O)c3cc4cc(C(F)(F)P(=O)(O)O)ccc4[nH]3)C(=O)N21)C(=O)NC(c1ccccc1)c1ccccc1 (stereo partly drawn) [SD-36] |  |  |  |  |  |  |  |  |  |  | 58.1 ± 8.9 | 70.6 ± 5.9 | 111 ± 7.3 | 117 ± 1.5 | 87.7 ± 2.3 | 106 | 73.8 ± 3.7 |  | 57.8 ± 6.8 | 99.6 ± 1.3 |  |
| CC(=O)N[C@@H](Cc1ccc(CP(=O)(O)O)cc1)C(=O)NC1(C(=O)N[C@@H](CC(N)=O)C(=O)NCCCc2c(O)ccc3ccccc23)CCCCC1 [CGP78850] |  |  |  |  |  |  |  |  |  | 0.508 | 5 ± 1.1 | 42.1 ± 4.6 | 111 ± 10.3 | 50.4 ± 7.8 | 97.4 ± 9.4 | 104 ± 4.8 | 87.2 ± 19.7 | 0.048 | 0 | 77.3 ± 6.6 |  |
| CC[C@H](C)[C@H](NC(=O)[C@H](CCC(=O)O)NC(=O)[C@H](CCC(=O)O)NC(=O)[C@H](Cc1ccc(OP(=O)(O)O)cc1)NC(C)=O)C(=O)N[C@@H](CCC(=O)O)C(N)=O [Ac-pYEEIE-NH2] (Ac-[pY]EEIE-NH2) |  |  |  |  |  |  |  |  |  |  |  |  |  |  |  |  |  | 14.9 |  |  | percent of DMSO vehicle control (TNS4; primary screen, 10 μM): 61.9±0.0%; percent of DMSO vehicle control (BLK; primary screen, 10 μM): 47.8%; percent of DMSO vehicle control (PIK3R3(SH2dom.N-term.); primary screen, 10 μM): 85.7%; percent of DMSO vehicle control (VAV2; primary screen, 10 μM): 49.5±2.8%; percent of DMSO vehicle control (SHB; primary screen, 10 μM): 117.6%; percent of DMSO vehicle control (NCK1; primary screen, 10 μM): 90.1%; percent of DMSO vehicle control (PLCG2(SH2dom.N-term.); primary screen, 10 μM): 92.3±3.3%; percent of DMSO vehicle control (PIK3R3(SH2dom.C-term.); primary screen, 10 μM): 27.7±0.9%; percent of DMSO vehicle control (SH2D1B; primary screen, 10 μM): 47.1±1.3% |
| O=C(COc1ccc2cc(C(=O)Nc3ccccc3)ccc2c1)NCc1ccc(OP(=O)(O)O)c(OP(=O)(O)O)c1 [Stafib-1] | 32.7 | 91.8 ± 35.5 | 105 | 95.8 ± 29.1 | 114 | 53.7 ± 39.3 | 72.6 ± 27.2 | 86.5 | 62.9 ± 9.5 |  |  |  |  |  |  |  |  |  |  |  | KD (TNS4; dose-response): No Hit |
